According to ChEMBL document CHEMBL2440105, “Synthesis and anti-parasitic activity of a novel quinolinone-chalcone series” (Bioorg Med Chem Lett, 2013):
pIC50: −log10 of the molar value.

Assays:
[1] = tested on: Leishmania infantum; assay: Antileishmanial activity against Leishmania infantum MOM/MA671TMAP263 axenic amastigotes infected in THP1 cells after 72 hrs by luciferase reporter gene assay; assay type: functional, organism-based; details: MOM/MA671TMAP263, THP-1, 72 h
[2] = tested on: Trypanosoma brucei brucei; assay: Trypanocidal activity against bloodstream forms of Trypanosoma brucei brucei Lister 427 clone 221a after 72 hrs by AlamarBlue assay; assay type: functional, organism-based
[3] = tested on: THP-1; assay: Cytotoxicity against human THP1 cells after 72 hrs by MTT assay; assay type: cell-based; details: THP-1, 72 h
[4] = tested on: THP-1; assay: Cytotoxicity against human THP1 cells by AlamarBlue assay

Row | SMILES | pIC50 [1] | pIC50 [2] | pIC50 [3] | pIC50 [4]
1 | COc1ccc(C2CC(c3c(O)c4ccccc4[nH]c3=O)=NN2c2ccccc2)cc1OC (stereo not drawn) | 4.87 | 5.84 | < 4.30 | –
2 | CC(=O)N1N=C(c2c(O)c3ccccc3[nH]c2=O)CC1c1ccccc1C (stereo not drawn) | 6.15 | 5.84 | 5.38 | –
3 | Cc1ccc(/C=C/C(=O)c2c(O)c3ccccc3[nH]c2=O)cc1 | 5.68 | < 5.00 | < 4.30 | –
4 | Cc1ccccc1/C=C/C(=O)c1c(O)c2ccccc2[nH]c1=O | < 4.30 | 5.59 | < 4.30 | –
5 | COc1cccc(/C=C/C(=O)c2c(O)c3ccccc3[nH]c2=O)c1 | 4.55 | 5.19 | 4.41 | –
6 | CC(C)(C)c1cc(/C=C/C(=O)c2c(O)c3ccccc3[nH]c2=O)cc(C(C)(C)C)c1O | 5.89 | 5.48 | 4.58 | –
7 | O=C(/C=C/c1ccc(C(F)(F)F)cc1)c1c(O)c2ccccc2[nH]c1=O | 5.51 | < 5.00 | < 4.30 | –
8 | O=C(O)c1ccc(/C=C/C(=O)c2c(O)c3ccccc3[nH]c2=O)cc1 | 4.74 | < 5.00 | < 4.30 | –
9 | CC(/C=C/C(=O)c1c(O)c2ccccc2[nH]c1=O)=C\c1ccccc1 | 4.70 | < 5.00 | < 4.30 | –
10 | Cc1ccccc1/C=C/C(=O)c1c(O)c2ccccc2n(Cc2ccccc2)c1=O | < 4.60 | 5.21 | 4.34 | –
11 | C[C@@H]1[C@H](O)[C@@H](C)/C=C/C=C/C=C/C=C/C=C/C=C/C=C/[C@H](O[C@@H]2O[C@H](C)[C@@H](O)[C@H](N)[C@@H]2O)C[C@@H]2O[C@](O)(C[C@@H](O)C[C@@H](O)[C@H](O)CC[C@@H](O)C[C@@H](O)CC(=O)O[C@H]1C)C[C@H](O)[C@H]2C(=O)O [AMPHOTERICIN B] | 5.92 | – | 4.62 | –
12 | CC1CS(=O)(=O)CCN1/N=C/c1ccc([N+](=O)[O-])o1 (stereo not drawn) [NIFURTIMOX] | – | 5.54 | – | < 4.00

Second part, led by results:

Row | pIC50 [1] | SMILES | pIC50 [2] | pIC50 [3] | pIC50 [4]
13 | < 4.60 | COc1ccc(/C=C/C(=O)c2c(O)c3ccccc3n(Cc3ccccc3)c2=O)cc1OC | 5.25 | 4.54 | –
14 | 4.94 | COc1cc(/C=C/C(=O)c2c(O)c3ccccc3[nH]c2=O)ccc1O | 5.31 | 4.63 | –
15 | 4.90 | COc1ccc(/C=C/C(=O)c2c(O)c3ccccc3[nH]c2=O)cc1 | < 5.00 | < 4.30 | –
16 | 5.12 | COc1ccc(/C=C/C(=O)c2c(O)c3ccccc3[nH]c2=O)cc1OC | 5.31 | < 4.30 | –
17 | 4.57 | O=C(/C=C/c1ccc([N+](=O)[O-])cc1)c1c(O)c2ccccc2[nH]c1=O | < 5.00 | < 4.30 | –
18 | < 4.30 | O=C(/C=C/C=C/c1ccccc1)c1c(O)c2ccccc2[nH]c1=O | < 5.00 | < 4.30 | –
19 | 4.61 | CCn1c(=O)c(C(=O)/C=C/c2ccccc2C)c(O)c2ccccc21 | < 5.00 | < 4.30 | –
20 | < 4.30 | CCn1c(=O)c(C(=O)/C=C/c2ccc(OC)c(OC)c2)c(O)c2ccccc21 | < 5.00 | < 4.30 | –
